{"source": "patent US20250206779A1", "about": "“ANGIOTENSIN-(1-9) ANALOGUE BASED ON D AMINO ACIDS, PHARMACEUTICAL COMPOSITIONS AND USES THEREOF” (UNIVERSIDAD DE CHILE, priority 2021, published 2025)", "key": {"cardiomyocytes": {"system": "cardiomyocytes", "assay": "Norepinephrine-induced cardiomyocyte hypertrophy, cell area and perimeter", "type": "cell-based, rat", "conditions": "100 μM peptide, norepinephrine 10 μM", "protocol": "Cardiac myocytes were isolated from neonatal Sprague-Dawley rat ventricles. Cardiac myocytes were plated at 70% final density in gelatin-coated wells (12-well plates) or in 60-mm Petri dishes and maintained at 37° C. in a humidified atmosphere of 5% CO2/95% air for 24 h in Dulbecco's Modified Eagle's medium [(DMEM)/M199](4:1) containing 10% fetal bovine serum and 5% fetal calf serum. Serum was withdrawn 24 h before preincubation with 1, 10 or 100 μM retro-inverse angiotensin-(1-9) for 1 h; then, 10 μM norepinephrine (Sigma, St Louis, Missouri, USA) were added and the cultures were incubated for 24 h. […] After centrifugation at 12,000 r.p.m. for 15 min at 4° C., the supernatat was recovered; total protein content was determined by using Bradford (BioRad protein assay, BioRad, Hercules, CA, USA). […]\nCardiomyocyte hypertrophy is characterized by an increase of cell area and perimeter. Cell area and perimeter were analyzed as follows. […] Cell area and perimeter were determined in cells fixed with 4% paraformaldehyde for 10 min and permeabilized with 0.2% Triton X100 for 6 min. […] Cell staining was evaluated by epifluorescence microscopy. At least 100 cells from randomly selected fields were analyzed using Image J software (NIH). […]"}, "[1]": {"system": "spontaneously hypertensive rats (SHR)", "assay": "Cardiac hypertrophy by morphometry analysis in SHR", "type": "in vivo, rat", "conditions": "SHR, 1,200 ng/kg/min, 14 days, left ventricle", "protocol": "(§1) Experimental animal model. All procedures were performed in accordance with the Guide for the Care and Use of Laboratory Animals published by the U.S. National Institutes of Health (NIH Publication 85 23, 1985) and approved by our Institutional Bioethics Committee. The animals were housed under the continuous professional monitoring of the Medical Veterinary staff in the animal facility of the Pontificia Universidad Católica de Chile, under the following conditions: 12-h light-dark cycle; 21° C. ambient temperature; 50% humidity; adequate ventilation; noise-free environment; and food and water ad libitum. Male spontaneously hypertensive rats (SHR, age 12 weeks) and normotensive Wistar Kyoto rats (WKY, 12 weeks age) were used. […] Systolic blood pressure (SBP), diastolic blood pressure (DBP) and body weight (BW) were measured at the end of the treatment period and the animals were then sacrificed.\nMeasurement of cardiac hypertrophy by morphometry analysis. […] Cardiomyocyte size (area and perimeter) was determined as described by Ocaranza et al. (J. Hypertens. 2010; 28:1054-1064). […]"}, "[2]": {"system": "spontaneously hypertensive rats (SHR)", "assay": "Fibroblast proliferation in cardiac tissue of SHR, Ki67 immunohistochemistry", "type": "in vivo, rat", "conditions": "SHR, 1,200 ng/kg/min, 14 days", "protocol": "as §1, with “libitum.” for “libitum. Male spontaneously hypertensive rats (SHR, age 12 weeks) and normotensive Wistar Kyoto rats (WKY, 12 weeks age) were used.”\nImmunohistochemistry for Ki67. Proliferation of fibroblast, another marker of fibrosis, was assessed by measuring the presence of Ki-67 positive nuclei. […] Two blinder researchers counted manually positive cells in 10 high-power fields (×40). […] The percentage of positive Ki67 cells was calculated. As observed with the above cardiac fibrosis marker, collagen content assessed by picrosirius red staining, in hypertensive SHR, an increase in fibroblast with Ki-67 positive nuclei were found, confirming the occurrence of cardiac fibrosis."}}, "note": "Where a SMILES comes first, the peptide text is derived from it. [ ]: non-standard residue; d: D form."}
{"smiles": "CC[C@@H](C)[C@@H](NC(=O)[C@@H](Cc1c[nH]cn1)NC(=O)[C@H]1CCCN1C(=O)[C@@H](Cc1ccccc1)NC(=O)[C@H](N)Cc1c[nH]cn1)C(=O)N[C@H](Cc1ccc(O)cc1)C(=O)N[C@@H](C(=O)N[C@H](CCCNC(=N)N)C(=O)N[C@H](CC(=O)O)C(=O)O)C(C)C", "note": "[retro-inverse angiotensin-(1-9), NH2-^DH^DF^DP^DH^DI^DY^DV^DR^DD-COOH] (H-[dH][dF][dP][dH][dI][dY][dV][dR][dD]-OH)", "values": [{"measurement": "increase of cell area induced by norepinephrine", "setting": "cardiomyocytes", "result": "inhibited, in a dose response manner"}, {"measurement": "increase of cell perimeter induced by norepinephrine", "setting": "cardiomyocytes", "result": "inhibited, in a dose response manner"}, {"measurement": "increase of area of cardiomyocytes induced by hypertension", "setting": "[1]", "result": "reversed the increase"}, {"measurement": "increase of perimeter of cardiomyocytes induced by hypertension", "setting": "[1]", "result": "reversed the increase"}, {"measurement": "increase of fibroblast with Ki-67 positive nuclei induced by hypertension", "setting": "[2]", "result": "reversed the increase"}]}
